{"source": "patent US20100055067A1", "about": "“PERFLUOROCARBON CONJUGATE AS A BLOOD SUBSTITUTE” (SNU R&DB Foundation, priority 2008, published 2010)", "origin": "cited, not measured here", "key": {"[1]": {"details": "relatively low boiling point"}}, "note": "Read-outs that look alike come from different tables or passages of the source.", "data": [{"smiles": "FC(OC(F)(F)C(F)(OC(F)(F)C(F)(OC(F)(F)C(F)(OC(F)(F)C(F)(F)C(F)(F)F)C(F)(F)F)C(F)(F)F)C(F)(F)F)C(F)(F)F", "note": "(stereo not drawn) [Freon E-4, 2-monohydrononacosafluoro-3,6,9,1 2-tetraoxa-5,8,11-trimethylpentadecan]", "values": [{"measurement": "accumulation in the internal organs", "setting": "in vivo", "result": "accumulate in the internal organs such as liver and spleen for a long period of time"}]}, {"smiles": "FC1(F)OC(F)(F)C(F)(F)C1(F)F", "note": "[FX-80, perfluorotetrahydrofuran]", "values": [{"measurement": "damage to the lung", "setting": "[1]", "result": "can cause substantial damage to the lung"}]}, {"smiles": "FC(F)(F)C(F)(F)C(F)(F)C(F)(F)N(C(F)(F)C(F)(F)C(F)(F)C(F)(F)F)C(F)(F)C(F)(F)C(F)(F)C(F)(F)F", "note": "[FC-43, perfluorotributylamine]", "values": [{"measurement": "accumulation in the internal organs", "setting": "administered to test animals, liver and spleen, resulting in an adverse effect to the animals", "result": "accumulate in the internal organs such as liver and spleen for a long period of time"}]}]}
